According to patent US9452154B2, “Methods for treating HCV” (Gilead Sciences, Inc., priority 2010, dated 2016):
Like-named read-outs stand apart in the source and are kept apart here.

Columns and labels:
HCV genotype 1a replicon [1] = assay: Biological Example 3: HCV genotype 1a replicon assay, EC50; type: cell-based; details: Hepatitis C virus, 72 h, 3 days, read-out: EC50
Protocol: The HCV genotype 1a replicon cell line used in this study was described previously. The cells were grown in cell culture medium containing Dulbecco's Modified Eagle Medium (DMEM) with GlutaMAX (Gibco, Carlsbad, Calif., Cat#10569-044), supplemented with 10% FBS (HyClone, Logan, Utah, Cat#SH30071.03), 100 Units/mL Penicillin, 100 μg/mL Streptomycin (Gibco, Carlsbad, Calif., Cat#15140-122), and 0.1 mM non-essential amino acids (Gibco, Carlsbad, Calif., Cat#11140-050). Replicon cells were maintained in 0.5 mg/mL Geneticin (Invitrogen, Carlsbad, Calif., Cat#10131-035) to prevent the loss of HCV replicon. The cells were passaged every 3-4 days before reaching confluency.
(§1) [formula] where XC is the fluorescence signal from the compound-treated well; MB is the average fluorescence signal from puromycin-treated wells; MD is the average fluorescence signal from DMSO-treated wells. The anti-HCV replication activity was determined by the luminescence signal generated from the reporter renilla luciferase of the HCV replicon. The percent inhibition on HCV replicon was calculated using equation 1, where XC is the luminescence signal from compound-treated well; MB is average luminescence signal from the ITMN-191-treated wells; MD is the average luminescence signal from DMSO-treated wells.
(§2) Both CC50 and EC50 values were obtained using Pipeline Pilot 5.0 software package (Accelrys, San Diego, Calif.) by nonlinear regression fitting of experimental data to equation 2: […]

[2] = Biological Example 3: cytotoxicity (calcein AM), CC50; type: cell-based; details: human, Huh-7 cells carrying a HCV genotype 1a replicon; HCV genotype 1a replicon cells; calcein AM
Protocol: The HCV replicon assay was a multiplex assay which can assess both cytotoxicity and anti-replicon activity from the same well. The CC50 assay was performed first.
The cytotoxicity effect was determined by calcein AM conversion to fluorescent product. The percent cytotoxicity was calculated by equation 1:
as §1, §2

[3] = system: NS3 GT1a mutant replicons; type: cell-based, HCV
Protocol: (§3) GT1b and GT1a replicons carrying Renilla Luciferase reporter were used to generate the mutant replicons. The mutations were introduced into the replicon construct by site-directed mutagenesis and confirmed by sequencing. Mutant replicon RNAs were generated from DNA by in vitro transcription and transfected into Huh-7 Lunet or C1 cells
(§4) Compounds were serially diluted 1:3 in 100% DMSO (Sigma). These serial dilutions were added to the cells at a 1:200 dilution to achieve a final concentration of 0.5% DMSO in a total volume of 200 μL. […] EC50 values were calculated using Prism.
(§5) For comparison, a fold change of 0-3 is considered “sensitive”, a fold change of 3-10 is considered “low”, a fold change of 10-50 is considered “medium” and a fold change of greater than […] is considered “high”.

[4] = system: NS3 GT1b mutant replicons; type: cell-based, HCV
Protocol: as §3, §4, §5

[5] = system: GT1b and GT1a mutant replicons; assay: Biological Example 8: summary of cross resistance of mutant replicons; type: cell-based, HCV; details: triple class mutants that confer resistance to PI, NS5A and Compound 1
Protocol: as §3, §4, §5

[6] = system: Huh-7 cells carrying a HCV genotype 1a replicon; assay: Biological Example 3: cytotoxicity in combination studies (MacSynergy II); details: in combination with Compound 4
HCV genotype 1a replicon [7] = assay: Biological Example 3: antiviral combination studies with Compound 4 (MacSynergy II); details: in combination with Compound 4
GT-1b Huh-lunet cells = assay: Biological Example 4: antiviral combination studies with Compound 5 (MacSynergy II); type: cell-based, HCV; details: in combination with Compound 5, 1b replicon cells
HCV 1b replicon system = assay: Biological Example 5: antiviral combination studies with Compound 6 (MacSynergy II); type: cell-based; details: in combination with Compound 6

In the case of `CC1=CC[C@H](C(=O)N(c2cc(C#CC(C)(C)C)sc2C(=O)O)[C@H]2CC[C@](O)(CO[C@H]3CCOC3)CC2)CC1` [Compound 5, 5-(3,3-dimethylbut-1-yn-1-yl)-3-[(cis-4-hydroxy-4-{[(3S)-tetrahydrofuran-3-yloxy]methyl}cyclohexyl){[(1R)-4-methylcyclohex-3-en-1-yl]carbonyl}amino]thiophene-2-carboxylic acid], the EC50 (HCV genotype 1a replicon [1]) is reported as 15 ± 2.4 nM, the CC50 at 3 days [2] is reported as over 44400 nM and the “fold change in EC50 vs wild-type GT1a” value ([3]; mutant A156T) is reported as 0.4 fold. For the same molecule, the “fold change in EC50 vs wild-type GT1a” value ([3]; mutant D168A) was 1.1 fold, the “fold change in EC50 vs wild-type GT1a” value ([3]; mutant D168E) was 0.7 fold and the “fold change in EC50 vs wild-type GT1a” value ([3]; mutant D168G) was 1.0 fold. The “fold change in EC50 vs wild-type GT1a” value ([3]; mutant D168H) was 1.1 fold, the “fold change in EC50 vs wild-type GT1a” value ([3]; mutant D168N) was 1.3 fold and the “fold change in EC50 vs wild-type GT1a” value ([3]; mutant D168V) was 1.1 fold. For the same molecule, the “fold change in EC50 vs wild-type GT1a” value ([3]; mutant D168Y) was 0.7 fold, the “fold change in EC50 vs wild-type GT1a” value ([3]; mutant R155I) was 0.7 fold and the “fold change in EC50 vs wild-type GT1a” value ([3]; mutant R155K) was 0.8 fold. The “fold change in EC50 vs wild-type GT1a” value ([3]; mutant R155K + L31M) was 0.4 fold, the “fold change in EC50 vs wild-type GT1a” value ([3]; mutant R155K + L31M + Y448H) was 0.3 fold and the “fold change in EC50 vs wild-type GT1a” value ([3]; mutant R155K + M28T) was 0.8 fold. The “fold change in EC50 vs wild-type GT1a” value ([3]; mutant R155K + M28T + Y448H) was 0.3 fold, the “fold change in EC50 vs wild-type GT1a” value ([3]; mutant R155K + Q30H + Y448H) was 0.5 fold and the “fold change in EC50 vs wild-type GT1a” value ([3]; mutant R155K + Q30R) was 1.5 fold. The “fold change in EC50 vs wild-type GT1a” value ([3]; mutant R155K + Y93H) was 0.6 fold, the “fold change in EC50 vs wild-type GT1a” value ([3]; mutant R155K + Y488H (first line, r20)) was 1.0 fold and the “fold change in EC50 vs wild-type GT1a” value ([3]; mutant R155K + Y488H (second line, r26)) was 0.6 fold. For the same molecule, the “fold change in EC50 vs wild-type GT1a” value ([3]; mutant R155M) was 0.7 fold, the “fold change in EC50 vs wild-type GT1a” value ([3]; mutant R155S) was 0.5 fold and the “fold change in EC50 vs wild-type GT1a” value ([3]; mutant R155T) was 0.6 fold. The “fold change in EC50 vs wild-type GT1a” value ([3]; mutant R155W) was 1.0 fold, the “fold change in EC50 vs wild-type GT1a” value ([3]; mutant R155k + Q30H) was 0.6 fold and the “fold change in EC50 vs wild-type GT1b” value ([4]; mutant A156D) was 0.8 fold. For the same molecule, the “fold change in EC50 vs wild-type GT1b” value ([4]; mutant A156G) was 0.8 fold, the “fold change in EC50 vs wild-type GT1b” value ([4]; mutant A156T) was 0.7 fold and the “fold change in EC50 vs wild-type GT1b” value ([4]; mutant A156V) was 0.8 fold. For the same molecule, the “fold change in EC50 vs wild-type GT1b” value ([4]; mutant D168A) was 0.9 fold, the “fold change in EC50 vs wild-type GT1b” value ([4]; mutant D168E) was 0.9 fold and the “fold change in EC50 vs wild-type GT1b” value ([4]; mutant D168E + L31V + Y448H) was 0.8 fold. For the same molecule, the “fold change in EC50 vs wild-type GT1b” value ([4]; mutant D168E + Y93H + Y448H) was 0.5 fold, the “fold change in EC50 vs wild-type GT1b” value ([4]; mutant D168E + Y448H) was 0.4 fold and the “fold change in EC50 vs wild-type GT1b” value ([4]; mutant D168G) was 0.8 fold. For the same molecule, the “fold change in EC50 vs wild-type GT1b” value ([4]; mutant D168H) was 1.0 fold, the “fold change in EC50 vs wild-type GT1b” value ([4]; mutant D168H + C445F) was 0.4 fold and the “fold change in EC50 vs wild-type GT1b” value ([4]; mutant D168L + C445F) was 0.2 fold. The “fold change in EC50 vs wild-type GT1b” value ([4]; mutant D168N) was 1.1 fold, the “fold change in EC50 vs wild-type GT1b” value ([4]; mutant D168T) was 1.0 fold and the “fold change in EC50 vs wild-type GT1b” value ([4]; mutant D168V) was 1.3 fold. The “fold change in EC50 vs wild-type GT1b” value ([4]; mutant D168V + C445F) was 0.3 fold, the “fold change in EC50 vs wild-type GT1b” value ([4]; mutant D168V + L31V + Y448H) was 0.6 fold and the “fold change in EC50 vs wild-type GT1b” value ([4]; mutant D168V + Y93H + Y448H) was 0.6 fold. The “fold change in EC50 vs wild-type GT1b” value ([4]; mutant D168V + Y448H) was 0.5 fold, the “fold change in EC50 vs wild-type GT1b” value ([4]; mutant D168Y) was 1.1 fold and the “fold change in EC50 vs wild-type GT1b” value ([4]; mutant L31V + D168E) was 1.3 fold. For the same molecule, the “fold change in EC50 vs wild-type GT1b” value ([4]; mutant L31V + D168V) was 1.1 fold, the “fold change in EC50 vs wild-type GT1b” value ([4]; mutant R155C) was 0.6 fold and the “fold change in EC50 vs wild-type GT1b” value ([4]; mutant R155G) was 0.8 fold. The “fold change in EC50 vs wild-type GT1b” value ([4]; mutant R155K) was 1.2 fold, the “fold change in EC50 vs wild-type GT1b” value ([4]; mutant R155L) was 0.8 fold and the “fold change in EC50 vs wild-type GT1b” value ([4]; mutant R155Q) was 0.6 fold. The “fold change in EC50 vs wild-type GT1b” value ([4]; mutant R155W) was 0.5 fold, the “fold change in EC50 vs wild-type GT1b” value ([4]; mutant Y93H + D168E) was 1.0 fold and the “fold change in EC50 vs wild-type GT1b” value ([4]; mutant Y93H + D168V) was 0.5 fold. For the same molecule, the susceptibility of mutants [5] was “susceptible”, the “Antagonism Volume (cytotoxicity)” value [6] was −10 ± 7 nM^2% and the “Interaction (cytotoxicity)” value [6] was “Additivity (Additivity: ≦25 and >−25 nM^2%)”. For the same molecule, the “Synergy Volume (cytotoxicity)” value [6] was 15 ± 8 nM^2%, the “Antagonism Volume” value (HCV genotype 1a replicon [7]) was −1 ± 3 nM^2% and the “Synergy Volume” value (HCV genotype 1a replicon [7]) was 26 ± 28 nM^2%.
With `COc1ccc2c(O[C@@H]3C[C@H]4C(=O)N[C@]5(P(=O)(O)Cc6c(F)cccc6F)C[C@H]5CCCCCCC[C@H](NC(=O)OC5CCCC5)C(=O)N4C3)cc(-c3csc(NC(C)C)n3)nc2c1Cl` [Compound 2, (2R,6S,13aR,14aS,16aS)-2-(8-chloro-2-(2-(isopropylamino)thiazol-4-yl)-7-methoxyquinolin-4-yloxy)-6-(cyclopentyloxycarbonylamino)-5,16-dioxooctadecahydrocyclopropa[e]pyrrolo[1,2-a][1,4]diazacyclopentadecin-14a-yl(2,6-difluorobenzyl)phosphinic acid] the EC50 (HCV genotype 1a replicon [1]) was 496 ± 135 nM, the CC50 at 3 days [2] was over 22200 nM and the Interaction (GT-1b Huh-lunet cells) was “Additive”. The “Synergy Volume” value (GT-1b Huh-lunet cells) was 22 ± 12 nM^2, the Interaction (HCV 1b replicon system) was “Moderate Synergy” and the “Antagonism Volume (cytotoxicity)” value [6] was 0 ± 0 nM^2%. The “Interaction (cytotoxicity)” value [6] was “Additivity (Additivity: ≦25 and >−25 nM^2%)”, the “Synergy Volume (cytotoxicity)” value [6] was 17 ± 14 nM^2% and the “Antagonism Volume” value (HCV genotype 1a replicon [7]) was −2 ± 3 nM^2%. The Interaction (HCV genotype 1a replicon [7]) was “Additivity (Additivity: ≦25 and >−25 nM^2%)” and the “Synergy Volume” value (HCV genotype 1a replicon [7]) was 22 ± 14 nM^2%.
